The subject of assay [1] is MCF7. The assay can be described thus: Cytotoxicity on MCF7 monolayers (MTT assay). As to conditions: Homo sapiens, MCF7, 72 h, read-out: Mean of % cytotoxicity ± SD.
Procedure: (§1) Eighty pre-plated synthetic chemical compounds were screened on two human cell lines: MCF7 (ATCC® HTB-22™), a Caucasian breast adenocarcinoma model, and hTERT-RPE-1 (ATCC® CRL-4000™), a normal retinal epithelial cell line immortalized by hTERT telomerase. […] The cells were cultured in DMEM-F12 medium supplemented with L-glutamine and 10% fetal bovine serum, all were purchase from Biowest (Biotechnology company in Nuaillé, France), and maintained in a controlled incubator environment set at 37 °C with 5% CO2 and 95% humidity.
MCF7 cells were seeded in flat-bottom 96-well plates with a concentration of 20,000 cells/well, and were left overnight. The compounds were tested at a final concentration of 50 µM. Doxorubicin was used as a positive control and 0.5% DMSO as a negative control. The treatment duration was 72 h. The cytotoxicity was then assessed using the MTT assay, as described by Mosmann[43].
Assay [2] deals with MCF7 3D spheroids. The assay can be described thus: Cytotoxicity on MCF7 3D multicellular spheroids (acid phosphatase method). Conditions: Homo sapiens, MCF7, 120 h, read-out: Mean of % cytotoxicity ± S.D.
Procedure: as §1
3-D spheroid models were generated from MCF7 cancer and hTERT-RPE1 normal cells were seeded at 10,000 and 50,000 cells/well, respectively, in poly-HEMA coated round bottom plates according to the protocol previously mentioned[44]. The cells were incubated for 5 days to generate the spheroids with diameter of 500 ± 20 µm. The spheroids were imaged using Olympus S100, U-CMAD3 camera connected to Olympus inverted microscope and the diameter of the spheroids was measured using Cellscen-Entry software. Test compounds were added in triplicate to a final concentration of 50 µM and were incubated for 120 h. […] At the end of incubation, cytotoxicity was determined using the acid phosphatase method[45]. After washing twice with 250 μL PBS buffer, 100 μL of 0.1 M sodium citrate, 0.1% Triton X-100, p-nitrophenylphosphate (2 mg/ml) (Pierce Biotechnology Inc., Rockford, IL) was added to each well and incubated for 1.5 h at 37 °C. After incubation, 10 μL of 1N NaOH stop solution was added to each well, and absorbance was read at 405 nm. Cytotoxicity was calculated according to the following equation:

`CC(C)(C)SCCNc1nc(Oc2ccc(F)cc2)nc(Oc2ccc(F)cc2)n1` [E03, N2-[2-(tert-butylthio)ethyl]-4,6-di(4-fluorophenoxy)-1,3,5-triazin-2-amine]: the cytotoxicity at 50 µM turned out to be 80.3 ± 1.5% in assay [1] and 41.8 ± 0.6% in assay [2].
With `Clc1ccc(CSc2ncnc3c2sc2nnc(-c4ccccc4)c(-c4ccccc4)c23)cc1` [A11, 8-[(4-chlorobenzyl)sulfanyl]-3,4-diphenylpyrimido [4',5':4,5]thieno[2,3-c]pyridazine], the figures for the cytotoxicity at 50 µM in assay [1] and in assay [2] were 44.2 ± 1.6% and 46.4 ± 1.3%, respectively.
Regarding `NS(=O)(=O)c1cccc(NC(=O)Nc2ccccc2)c1` [F11, 3-[(anilinocarbonyl)amino]benzenesulfonamide], the cytotoxicity at 50 µM was 0% in assay [1] and 60.4 ± 0.77% in assay [2].
Turning to `Cc1nc(-c2ccc(S(=O)(=O)Nc3ccc4c(c3)OCCO4)s2)cs1` [G04, N-(2,3-dihydro-1,4-benzodioxin-6-yl)-5-(2-methyl-1,3-thiazol-4-yl)-2-thiophenesulfonamide], the cytotoxicity at 50 µM in assay [1] is 0%; in assay [2] it was 6.3 ± 0.3%.
As for `O=C1C2CC=CCC2C(=O)N1c1cccc(N2C(=O)C3CC=CCC3C2=O)n1` (stereo not drawn) [F04, 2-[6-(1,3-dioxo-2,3,3a,4,7,7a-hexahydro-1H-isoindol-2-yl)-2-pyridyl]-2,3,3a,4,7,7a-hexahydro-1H-isoindole-1,3-dione], the cytotoxicity at 50 µM in assay [1] was found to be 46.9 ± 2.6%; in assay [2] it was 29.8 ± 1.23%.
The matching figures for `CN(C)C=C1Cc2ccccc2C1=O` [E05, 2-[(dimethylamino)methylidene]indan-1-one]: 47.5 ± 6.2% and 41.4 ± 3.6%.
The corresponding values for `COc1cc(-n2c(S)nnc2CCc2nc(-c3ccc(Cl)cc3)no2)c(OC)cc1Cl` [D07, 4-(4-chloro-2,5-dimethoxyphenyl)-5-{2-[3-(4-chlorophenyl)-1,2,4-oxadiazol-5-yl]ethyl}-4H-1,2,4-triazole-3-thiol] are 88.7 ± 0.23% and 50.1 ± 2.3%.
In the case of `c1cc2c(cc1N=C1SCC3CCCCN13)OCO2` (stereo not drawn) [B08, N-hexahydro[1,3]thiazolo[3,4-a]pyridin-3-ylidene-1,3-benzodioxol-5-amine], the cytotoxicity at 50 µM in assay [1] worked out at 8.5 ± 0.47%; in assay [2] it was 53.1 ± 0.6%.
The matching figures for `NNC(=O)Cc1ccccc1` [B10, 2-phenylacetohydrazide]: 0% and 48.2 ± 0.23%.
The corresponding values for `CC(=O)Nc1ccc(C=C(C#N)C(N)=O)cc1` [G11, 3-[4-(acetylamino)phenyl]-2-cyanoacrylamide] are 15.6 ± 1.7% and 60.8 ± 1.23%.
As for `Nc1ccc(-c2ccc(N)c([N+](=O)[O-])c2)cc1[N+](=O)[O-]` [A06, 3,3'-dinitro[1,1'-biphenyl]-4,4'-diamine], the cytotoxicity at 50 µM came to 82.4 ± 0.41% in assay [1] and 60.8 ± 1% in assay [2].
Turning to `COc1c(Cl)cc([N+](=O)[O-])c(OC)c1C(=O)O` [D06, 3-chloro-2,6-dimethoxy-5-nitrobenzoic acid], the cytotoxicity at 50 µM worked out at 10.4 ± 0.6% in assay [1] and 40.8 ± 2.1% in assay [2].
The corresponding values for `CC1(C)C=Cc2cc(C(N)=NOC(=O)c3cccc(C(F)(F)F)c3)ccc2O1` [E10, O6-[3-(trifluoromethyl)benzoyl]-2,2-dimethyl-2H-chromene-6-carbohydroximamide] are 100 ± 0.003% and 67.5 ± 0.5%.
The corresponding values for `CC(C)=NOC(=O)c1scc(S(C)(=O)=O)c1Cl` [B07, 3-chloro-2-({[(1methylethylidene)amino]oxy}carbonyl)-4-(methylsulfonyl)thiophene] are 0% and 34.9 ± 1.7%.
Consider `FC(F)(F)c1ccnc(NCc2ccco2)n1` [H11, N2-(2-furylmethyl)-4-(trifluoromethyl)pyrimidin-2-amine], for which the cytotoxicity at 50 µM in assay [1] was found to be 0%; in assay [2] it was 68.5 ± 0.65%.
Turning to `O=C1CNC(=S)N1CCOc1ccc(Cl)cc1` [F05, 3-[2-(4-chlorophenoxy)ethyl]-2-thioxoimidazolidin-4-one], the cytotoxicity at 50 µM in assay [1] was determined as 96.9 ± 1.4%; in assay [2] it was 31.6 ± 0.8%.
In the case of `CCOC1=NC(=Cc2[nH]c(OCC)c(CC(=O)OC)c2C(=O)OC)C(C(=O)OC)=C1CC(=O)OC` [E02, methyl 5-ethoxy-2-{[5-ethoxy-3-(methoxycarbonyl)-4-(2-methoxy-2-oxoethyl)-2H-pyrrol-2-yliden]methyl}-4-(2-methoxy-2-oxoethyl)-1H-pyrrole-3-carboxylate], the cytotoxicity at 50 µM in assay [1] is 83.2 ± 1.2%; in assay [2] it was -10.8 ± 0.7%.
The corresponding values for `Cc1c(NCN2C(=O)CCC2=O)cc2c(c1[N+](=O)[O-])C(C)(C)CC2(C)C` [G09, 1-{[(1,1,3,3,6-pentamethyl-7-nitro-2,3-dihydro-1H-inden-5-yl)amino]methyl}pyrrolidine-2,5-dione] are 100 ± 0.005% and 66.5 ± 1.1%.
For `Cc1ccc2[nH]c(SCC(=O)NC3Cc4ccccc4C3)nc2c1` [H03, N-(2,3-dihydro-1H-inden-2-yl)-2-[(5-methyl-1H-benzimidazol-2-yl)thio]acetamide], the cytotoxicity at 50 µM was 88.5 ± 5.8% in assay [1] and 15.8 ± 0.11% in assay [2].
The matching figures for `O=C1NC(=O)C(=Cc2ccncc2)C(=O)N1` [B09, 5-(4-pyridylmethylidene)hexahydropyrimidine-2,4,6-trione]: 12.3 ± 0.7% and 59.2 ± 1.2%.
On to `CC(C)N1CC(COc2ccc(Br)cc2)OC1=O` (stereo not drawn) [H08, 5-[(4-bromophenoxy)methyl]-3-isopropyl-1,3-oxazolan-2-one], for which the values for the cytotoxicity at 50 µM in assay [1] and in assay [2] were 18 ± 2.23% and 49 ± 1.4%, respectively.
Consider `NS(=O)(=O)c1cccc(NC(=O)c2cccnc2Oc2ccccc2)c1` [G07, N-[3-(aminosulfonyl)phenyl]-2-phenoxynicotinamide], for which the cytotoxicity at 50 µM in assay [1] worked out at 0%; in assay [2] it was 35.1 ± 0.77%.
The corresponding values for `CCOC(=O)c1cnn(C(=O)c2snnc2C)c1N` [A05, Ethyl 5-amino-1-[(4-methyl-1,2,3-thiadiazol-5-yl)carbonyl]-1H-pyrazole-4-carboxylate] are 62.3 ± 2.5% and 49 ± 0.8%.
The matching figures for `O=C(NNC1=Nc2ccccc2SC1)c1ccc(F)cc1` [G06, N'-(2H-1,4-benzothiazin-3-yl)-4-fluorobenzohydrazide]: 93.4 ± 1.6% and 52.3 ± 2.3%.
On to `CCOC(=O)c1ccc(-n2c(=S)[nH]c3ccccc32)cc1` [B02, ethyl 4-(2-thioxo-2,3-dihydro-1H-benzimidazol-1-yl)benzoate], for which the cytotoxicity at 50 µM came to 100 ± 0.003% in assay [1] and 35.7 ± 1.8% in assay [2].
The matching figures for `COc1cc(-n2c(SC)nc3ccccc3c2=O)c(OC)cc1Cl` [A02, 3-(4-chloro-2,5-dimethoxyphenyl)-2-(methylthio)-3,4-dihydroquinazolin-4-one]: 94.3 ± 0.06% and 67.1 ± 3.3%.
The matching figures for `Cn1c(SCC(=O)NN2CC(=O)N(c3cccc(Cl)c3)CC2=O)nnc1-c1ccncc1` [G02, N-[4-(3-chlorophenyl)-2,5-dioxopiperazino]-2-{[4-methyl-5-(4-pyridinyl)-4H-1,2,4-triazol-3-yl]sulfanyl}acetamide]: 0% and -9.9 ± 0.8%.
The corresponding values for `Cc1ccc(S(=O)(=O)CCNC(=O)c2c(-c3c(Cl)cccc3Cl)noc2C)cc1` [F07, N4-{2-[(4-methylphenyl)sulfonyl]ethyl}-3-(2,6-dichlorophenyl)-5-methylisoxazole-4-carboxamide] are 4.4 ± 0.118% and 54.2 ± 0.53%.
On to `CC(=O)Cc1nsc(Nc2ccccc2)n1` [B06, 1-(5-anilino-1,2,4-thiadiazol-3-yl)acetone], for which the cytotoxicity at 50 µM turned out to be 14.8 ± 2.6% in assay [1] and 20.4 ± 0.35% in assay [2].
The corresponding values for `CC(=O)c1ccccc1OC(=O)c1ccc([N+](=O)[O-])o1` [C08, 2-acetylphenyl 5-nitro-2-furoate] are 66.3 ± 4.3% and 30.8 ± 1.3%.
On to `COc1ccc(NNC(=O)c2c(-c3c(F)cccc3Cl)noc2C)cc1` [D10, 3-(2-chloro-6-fluorophenyl)-N'-(4-methoxyphenyl)-5-methyl-4-isoxazolecarbohydrazide], for which the figures for the cytotoxicity at 50 µM in assay [1] and in assay [2] were 52.1 ± 2.11% and 51.7 ± 1.1%, respectively.
For `Cn1ccnc1SCC(=O)Nc1ccc(C(C)(C)C)cc1` [C04, N1-[4-(tert-butyl)phenyl]-2-[(1-methyl-1H-imidazol-2-yl)thio]acetamide], the cytotoxicity at 50 µM was 14.5 ± 0.58% in assay [1] and 28.6 ± 0.76% in assay [2].
The matching figures for `Clc1ccc(OCCCCCCCCCCOc2ccc(Cl)cc2)cc1` [H02, 1,10-bis(4-chlorophenoxy)decane]: 68.7 ± 2.7% and 3.5 ± 0.8%.
The corresponding values for `O=C(O)c1nccnc1C(=O)Nc1ccccc1N1CCOCC1` [A08, 3-[(2-morpholinoanilino)carbonyl]-2-pyrazinecarboxylic acid] are 17.2 ± 1% and 49.3 ± 0.53%.
The matching figures for `O=[N+]([O-])c1ccc(N2CCC(n3cccc3)CC2)cc1` [A04, 1-(4-nitrophenyl)-4-(1H-pyrrol-1-yl)piperidine]: 2.5 ± 0.35% and 43.1 ± 0.23%.
On to `O=C(SCc1cccc(C(F)(F)F)c1)c1ccc(Cl)c(Cl)c1` [C10, S-[3-(trifluoromethyl)benzyl] 3,4-dichlorobenzene carbothioate], for which the cytotoxicity at 50 µM in assay [1] was found to be 100 ± 0.003%; in assay [2], 33.8 ± 1.6%.
In the case of `Cc1ncc(CO)c(C=NO)c1O` [B04, 3-hydroxy-5-(hydroxymethyl)-2-methylisonicotinaldehyde oxime], the values for the cytotoxicity at 50 µM in assay [1] and in assay [2] were -58.5 ± 0.003% and 49.3 ± 0.35%, respectively.
`COc1cccc2c1C(=O)c1c(O)c3c(c(O)c1C2=O)C[C@@](O)(C(=O)CO)C[C@@H]3O[C@H]1C[C@H](N)[C@H](O)[C@H](C)O1` [doxorubicin, reference compound]: the cytotoxicity at 50 µM in assay [1] stood at 57.6 ± 2.1%.
